From patent US10259847B2, “Beta-hairpin peptidomimetics” (POLYPHOR AG, priority 2014, dated 2019)
Where a SMILES comes first, the peptide text is derived from it. Bridges are numbered along the chain shown (N, C = ends). [ ]: non-standard residue; d: D form. Tle = CC(C)(C)[C@H](N)C(=O)O; dDab = NCC[C@@H](N)C(=O)O; Orn = NCCC[C@H](N)C(=O)O; Dab = NCC[C@H](N)C(=O)O; Dap = NC[C@H](N)C(=O)O

Key:
Type in all cases: cell-based
[1] = tested on: human red blood cells (hRBC); test: Hemolysis of human red blood cells; conditions: red cells of human, 1 h, 100
Method: (§1) Stock solutions were kept at +4° C., light protected.
Percent hemolysis was calculated as follows: (OD540peptide/OD540H2O)×100%.

[2] = tested on: Klebsiella pneumoniae ATCC 13883; conditions: ATCC 13883
Method: as §1
(§2) The selective antimicrobial activities of the peptides were determined in 96-well plates (Greiner, polystyrene) by the standard NCCLS broth microdilution method (National Committee for Clinical Laboratory Standards 1993. Methods for dilution antimicrobial susceptibility tests for bacteria that grow aerobically, 3rd ed. Approved standard M7-A6; National Committee for Clinical laboratory standards, Wayne, Pa.) with slight modifications. Inocula of the microorganisms were diluted into Mueller-Hinton II (MH, cation adjusted) broth and compared with a 0.5 McFarland standard to give appr. 10^6 colony forming units (CFU)/mL. Aliquots (90 μl) of inoculate were added to 10 μl of MH broth+P-80 (Polysorbate 80, 0.002% final concentration) containing the peptide in serial two-fold dilutions. The following microorganisms were used to determine antibiotic selectivity of the peptides: Escherichia coli ATCC 25922, Klebsiella pneumoniae ATCC 13883 and Acinetobacter baumannii DSM 30008.

[3] = tested on: Escherichia coli ATCC 25922; conditions: ATCC 25922
Method: as §1, §2

[4] = tested on: Acinetobacter baumannii DSM 30008; conditions: DSM 30008
Method: as §1, §2

Klebsiella pneumoniae ATCC 13883 MIC [2]	Escherichia coli ATCC 25922 MIC [3]	Acinetobacter baumannii DSM 30008 MIC [4]	SMILES	Hemolysis at 100 μg/mL [1]
0.5 µg/mL	2 µg/mL	4 µg/mL	CC(C)C[C@@H]1NC(=O)[C@@H]2CCCN2C(=O)[C@H]2CCCN2C(=O)[C@H](CO)NC(=O)[C@@H]2CNC(=O)C[C@H](NC1=O)C(=O)N[C@@H](Cc1ccc(O)cc1)C(=O)N[C@@H](CCN)C(=O)N[C@@H](CCCN)C(=O)N[C@H](CCN)C(=O)N[C@@H](CCN)C(=O)N[C@@H](Cc1c[nH]c3ccccc13)C(=O)N[C@@H](CCN)C(=O)N[C@@H](C(C)(C)C)C(=O)N2 [Example 21, cyclo(-Leu-Asp-Tyr-Dab-Orn-^DDab-Dab-Trp-Dab-tBuGly-Dap-Ser-^DPro-Pro-)] (cyclo(LDY[Dab][Orn][dDab][Dab]W[Dab][Tle][Dap]S[dP]P); lactam 2-11)	1%
0.5 µg/mL	0.5 µg/mL	1 µg/mL	CC(C)C[C@@H]1NC(=O)[C@@H]2CCCN2C(=O)[C@H]2CCCN2C(=O)[C@H](CO)NC(=O)[C@@H]2CCNC(=O)C[C@H](NC1=O)C(=O)N[C@@H](Cc1ccc(O)cc1)C(=O)N[C@@H](CCN)C(=O)N[C@@H](CCCN)C(=O)N[C@H](CCN)C(=O)N[C@@H](CCN)C(=O)N[C@@H](Cc1c[nH]c3ccccc13)C(=O)N[C@@H](CCN)C(=O)N[C@@H](C(C)(C)C)C(=O)N2 [Example 22, cyclo(-Leu-Asp-Tyr-Dab-Orn-^DDab-Dab-Trp-Dab-tBuGly-Dab-Ser-^DPro-Pro-)] (HELM PEPTIDE1{L.D.Y.[Dab].[Orn].[NCC[C@@H](N[*:1])C(=O)[*:2]].[Dab].W.[Dab].[CC(C)(C)[C@H](N[*:1])C(=O)[*:2]].[Dab].S.[dP].P}$PEPTIDE1,PEPTIDE1,2:R3-11:R3|PEPTIDE1,PEPTIDE1,1:R1-14:R2$$$V2.0)	1.5%
0.5 µg/mL	1 µg/mL	1 µg/mL	CC(C)C[C@@H]1NC(=O)[C@@H]2CCCN2C(=O)[C@H]2CCCN2C(=O)[C@H](CO)NC(=O)[C@@H]2CCNC(=O)C[C@H](NC1=O)C(=O)N[C@@H](Cc1ccc(O)cc1)C(=O)N[C@@H](CCN)C(=O)N[C@@H](CCCN)C(=O)N[C@@H](CCN)C(=O)N[C@@H](CCN)C(=O)N[C@@H](Cc1c[nH]c3ccccc13)C(=O)N[C@@H](CCN)C(=O)N[C@@H](C(C)(C)C)C(=O)N2 [Example 23, cyclo(-Leu-Asp-Tyr-Dab-Orn-Dab-Dab-Trp-Dab-tBuGly-Dab-Ser-^DPro-Pro-)] (HELM PEPTIDE1{L.D.Y.[Dab].[Orn].[Dab].[Dab].W.[Dab].[CC(C)(C)[C@H](N[*:1])C(=O)[*:2]].[Dab].S.[dP].P}$PEPTIDE1,PEPTIDE1,2:R3-11:R3|PEPTIDE1,PEPTIDE1,1:R1-14:R2$$$V2.0)	0%
0.5 µg/mL	0.5 µg/mL	1 µg/mL	CC(C)C[C@@H]1NC(=O)[C@@H]2CCCN2C(=O)[C@H]2CCCN2C(=O)[C@H](CO)NC(=O)[C@@H]2CCCCNC(=O)C[C@H](NC1=O)C(=O)N[C@@H](Cc1ccc(O)cc1)C(=O)N[C@@H](CCN)C(=O)N[C@@H](CCCN)C(=O)N[C@H](CCN)C(=O)N[C@@H](CCN)C(=O)N[C@@H](Cc1c[nH]c3ccccc13)C(=O)N[C@@H](CCN)C(=O)N[C@@H](C(C)(C)C)C(=O)N2 [Example 24, cyclo(-Leu-Asp-Tyr-Dab-Orn-^DDab-Dab-Trp-Dab-tBuGly-Lys-Ser-^DPro-Pro-)] (HELM PEPTIDE1{L.D.Y.[Dab].[Orn].[NCC[C@@H](N[*:1])C(=O)[*:2]].[Dab].W.[Dab].[CC(C)(C)[C@H](N[*:1])C(=O)[*:2]].K.S.[dP].P}$PEPTIDE1,PEPTIDE1,2:R3-11:R3|PEPTIDE1,PEPTIDE1,1:R1-14:R2$$$V2.0)	0.5%
1 µg/mL	1 µg/mL	2 µg/mL	CC(C)C[C@@H]1NC(=O)[C@@H]2CCCN2C(=O)[C@H]2CCCN2C(=O)[C@H](CO)NC(=O)[C@@H]2CCCCNC(=O)C[C@H](NC1=O)C(=O)N[C@@H](Cc1ccc(O)cc1)C(=O)N[C@@H](CCN)C(=O)N[C@@H](CCCN)C(=O)N[C@@H](CCN)C(=O)N[C@@H](CCN)C(=O)N[C@@H](Cc1c[nH]c3ccccc13)C(=O)N[C@@H](CCN)C(=O)N[C@@H](C(C)(C)C)C(=O)N2 [Example 25, cyclo(-Leu-Asp-Tyr-Dab-Orn-Dab-Dab-Trp-Dab-tBuGly-Lys-Ser-^DPro-Pro-)] (HELM PEPTIDE1{L.D.Y.[Dab].[Orn].[Dab].[Dab].W.[Dab].[CC(C)(C)[C@H](N[*:1])C(=O)[*:2]].K.S.[dP].P}$PEPTIDE1,PEPTIDE1,2:R3-11:R3|PEPTIDE1,PEPTIDE1,1:R1-14:R2$$$V2.0)	0%
1 µg/mL	4 µg/mL	4 µg/mL	CC(C)C[C@@H]1NC(=O)[C@@H]2CCCN2C(=O)[C@H]2CCCN2C(=O)[C@H](CO)NC(=O)[C@@H]2CCC(=O)NC[C@H](NC1=O)C(=O)N[C@@H](Cc1ccc(O)cc1)C(=O)N[C@@H](CCN)C(=O)N[C@@H](CCCN)C(=O)N[C@@H](CCN)C(=O)N[C@@H](CCN)C(=O)N[C@@H](Cc1c[nH]c3ccccc13)C(=O)N[C@@H](CCN)C(=O)N[C@@H](C(C)(C)C)C(=O)N2 [Example 26, cyclo(-Leu-Dap-Tyr-Dab-Orn-Dab-Dab-Trp-Dab-tBuGly-Glu-Ser-^DPro-Pro-)] (HELM PEPTIDE1{L.[O=C([C@H](CN[*:3])N[*:1])[*:2]].Y.[Dab].[Orn].[Dab].[Dab].W.[Dab].[CC(C)(C)[C@H](N[*:1])C(=O)[*:2]].E.S.[dP].P}$PEPTIDE1,PEPTIDE1,2:R3-11:R3|PEPTIDE1,PEPTIDE1,1:R1-14:R2$$$V2.0)	0%
0.5 µg/mL	0.5 µg/mL	2 µg/mL	CC(C)[C@@H]1NC(=O)[C@@H]2CCCN2C(=O)[C@H]2CCCN2C(=O)[C@H](CO)NC(=O)[C@@H]2CC(=O)NCC[C@H](NC1=O)C(=O)N[C@@H](Cc1ccc(O)cc1)C(=O)N[C@@H](CCN)C(=O)N[C@@H](CCN)C(=O)N[C@H](CCN)C(=O)N[C@@H](CCN)C(=O)N[C@@H](Cc1c[nH]c3ccccc13)C(=O)N[C@@H](CCN)C(=O)N[C@@H](C(C)(C)C)C(=O)N2 [Example 28] (HELM PEPTIDE1{V.[Dab].Y.[Dab].[Dab].[NCC[C@@H](N[*:1])C(=O)[*:2]].[Dab].W.[Dab].[CC(C)(C)[C@H](N[*:1])C(=O)[*:2]].D.S.[dP].P}$PEPTIDE1,PEPTIDE1,2:R3-11:R3|PEPTIDE1,PEPTIDE1,1:R1-14:R2$$$V2.0)	1%
0.5 µg/mL	1 µg/mL	1 µg/mL	CC(C)C[C@@H]1NC(=O)[C@@H]2CCCN2C(=O)[C@H]2CCCN2C(=O)[C@H](CO)NC(=O)[C@@H]2CCC(=O)NC[C@H](NC1=O)C(=O)N[C@@H](Cc1ccc(O)cc1)C(=O)N[C@@H](CCN)C(=O)N[C@@H](CCCN)C(=O)N[C@H](CCN)C(=O)N[C@@H](CCN)C(=O)N[C@@H](Cc1c[nH]c3ccccc13)C(=O)N[C@@H](CCN)C(=O)N[C@@H](C(C)(C)C)C(=O)N2 [Example 29, cyclo(-Leu-Dap-Tyr-Dab-Orn-^DDab-Dab-Trp-Dab-tBuGly-Glu-Ser-^DPro-Pro-)] (cyclo(L[Dap]Y[Dab][Orn][dDab][Dab]W[Dab][Tle]ES[dP]P); lactam 2-11)	0.5%
2 µg/mL	1 µg/mL	1 µg/mL	CC(C)C[C@@H]1NC(=O)[C@@H]2CCCN2C(=O)[C@H]2CCCN2C(=O)[C@H](CO)NC(=O)[C@@H]2CCC(=O)NCC[C@H](NC1=O)C(=O)N[C@@H](Cc1ccc(O)cc1)C(=O)N[C@@H](CCN)C(=O)N[C@@H](CCCN)C(=O)N[C@H](CCN)C(=O)N[C@@H](CCN)C(=O)N[C@@H](Cc1c[nH]c3ccccc13)C(=O)N[C@@H](CCN)C(=O)N[C@@H](C(C)(C)C)C(=O)N2 [Example 30, cyclo(-Leu-Dab-Tyr-Dab-Orn-^DDab-Dab-Trp-Dab-tBuGly-Glu-Ser-^DPro-Pro-)] (HELM PEPTIDE1{L.[Dab].Y.[Dab].[Orn].[NCC[C@@H](N[*:1])C(=O)[*:2]].[Dab].W.[Dab].[CC(C)(C)[C@H](N[*:1])C(=O)[*:2]].E.S.[dP].P}$PEPTIDE1,PEPTIDE1,2:R3-11:R3|PEPTIDE1,PEPTIDE1,1:R1-14:R2$$$V2.0)	0.5%
0.5 µg/mL	0.5 µg/mL	0.5 µg/mL	CC(C)C[C@@H]1NC(=O)[C@@H]2CCCN2C(=O)[C@H]2CCCN2C(=O)[C@H](CO)NC(=O)[C@@H]2CC(=O)NCC[C@H](NC1=O)C(=O)N[C@@H](Cc1ccc(O)cc1)C(=O)N[C@@H](CCN)C(=O)N[C@@H](CCCN)C(=O)N[C@@H](CCN)C(=O)N[C@@H](CCN)C(=O)N[C@@H](Cc1c[nH]c3ccccc13)C(=O)N[C@@H](CCN)C(=O)N[C@@H](C(C)(C)C)C(=O)N2 [Example 32, cyclo(-Leu-Dab-Tyr-Dab-Orn-Dab-Dab-Trp-Dab-tBuGly-Asp-Ser-^DPro-Pro-)] (HELM PEPTIDE1{L.[Dab].Y.[Dab].[Orn].[Dab].[Dab].W.[Dab].[CC(C)(C)[C@H](N[*:1])C(=O)[*:2]].D.S.[dP].P}$PEPTIDE1,PEPTIDE1,2:R3-11:R3|PEPTIDE1,PEPTIDE1,1:R1-14:R2$$$V2.0)	1%
